Measurements from PMC4385830, “Group I Paks as therapeutic targets in NF2-deficient meningioma” (Oncotarget, 2015).

Legend:
Experiment in all cases: Kinase selectivity, Z'-LYTE
Format in all cases: biochemical
ADRBK1 (GRK2) = molecular target: T1, ADRBK1 (GRK2) (Homo sapiens, UniProt P25098)
T1 construct: purchased Invitrogen (Life Technologies) SelectScreen Z'-LYTE
T1 sequence (P25098 1-689): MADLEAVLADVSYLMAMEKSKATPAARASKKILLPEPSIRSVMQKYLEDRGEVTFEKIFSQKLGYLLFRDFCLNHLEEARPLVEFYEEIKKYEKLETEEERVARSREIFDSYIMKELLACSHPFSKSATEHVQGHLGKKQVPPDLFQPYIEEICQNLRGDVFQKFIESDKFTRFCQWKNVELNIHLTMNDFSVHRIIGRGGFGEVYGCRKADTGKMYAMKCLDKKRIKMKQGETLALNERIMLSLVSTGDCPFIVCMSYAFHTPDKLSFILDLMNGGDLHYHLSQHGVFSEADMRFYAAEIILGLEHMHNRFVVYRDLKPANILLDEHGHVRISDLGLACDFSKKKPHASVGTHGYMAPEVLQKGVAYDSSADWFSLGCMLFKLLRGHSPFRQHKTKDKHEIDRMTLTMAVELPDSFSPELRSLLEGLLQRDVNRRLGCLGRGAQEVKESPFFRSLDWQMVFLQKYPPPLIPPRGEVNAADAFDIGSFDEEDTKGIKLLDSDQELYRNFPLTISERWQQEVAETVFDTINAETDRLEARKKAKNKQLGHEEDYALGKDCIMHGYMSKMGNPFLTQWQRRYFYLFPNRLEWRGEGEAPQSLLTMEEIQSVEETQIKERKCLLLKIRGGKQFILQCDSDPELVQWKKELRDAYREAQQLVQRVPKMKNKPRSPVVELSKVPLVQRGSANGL
Method: (§1) Kinase selectivity was assessed using a commercial service that employs a fluorescence-based, coupled-enzyme assay based on the differential sensitivity of phosphorylated and non-phosphorylated peptides to proteolytic cleavage (Invitrogen, Z'-LYTE®). This assay uses recombinant protein kinases and assay mixed optimized for each particular kinase (http://www.lifetechnologies.com/us/en/home/life-science/drug-discovery/target-and-lead-identification-and-validation /kinasebiology/kinase-activity-assays/z-lyte.html).

AXL = molecular target: T2, AXL (Homo sapiens, UniProt P30530)
T2 construct: purchased Invitrogen (Life Technologies) SelectScreen Z'-LYTE
T2 sequence (P30530 26-894): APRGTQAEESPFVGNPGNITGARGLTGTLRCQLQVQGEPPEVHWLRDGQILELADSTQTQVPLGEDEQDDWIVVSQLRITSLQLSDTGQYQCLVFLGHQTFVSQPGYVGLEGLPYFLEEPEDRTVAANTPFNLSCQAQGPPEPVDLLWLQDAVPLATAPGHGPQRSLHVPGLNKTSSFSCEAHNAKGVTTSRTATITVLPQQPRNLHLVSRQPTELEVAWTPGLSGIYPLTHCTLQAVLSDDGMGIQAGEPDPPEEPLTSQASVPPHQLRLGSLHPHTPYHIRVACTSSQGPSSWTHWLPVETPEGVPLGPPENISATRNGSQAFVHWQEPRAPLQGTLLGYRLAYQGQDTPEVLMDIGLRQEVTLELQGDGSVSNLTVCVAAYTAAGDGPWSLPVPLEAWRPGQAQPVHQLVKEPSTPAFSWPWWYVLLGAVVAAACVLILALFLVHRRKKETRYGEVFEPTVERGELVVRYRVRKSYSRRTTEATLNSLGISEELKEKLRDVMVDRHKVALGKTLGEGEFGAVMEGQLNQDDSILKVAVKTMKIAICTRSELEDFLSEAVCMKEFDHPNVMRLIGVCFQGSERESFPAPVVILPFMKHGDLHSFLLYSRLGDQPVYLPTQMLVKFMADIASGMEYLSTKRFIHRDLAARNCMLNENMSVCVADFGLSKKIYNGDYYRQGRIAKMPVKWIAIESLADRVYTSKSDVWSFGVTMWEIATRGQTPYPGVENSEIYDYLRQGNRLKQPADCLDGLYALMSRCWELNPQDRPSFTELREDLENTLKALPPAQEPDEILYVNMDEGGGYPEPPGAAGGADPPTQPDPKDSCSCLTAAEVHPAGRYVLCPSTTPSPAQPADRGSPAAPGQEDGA
Method: as §1

BRAF = molecular target: T3, BRAF (Homo sapiens, UniProt P15056)
T3 construct: purchased Invitrogen (Life Technologies) SelectScreen Z'-LYTE
Method: as §1

BTK = molecular target: T4, BTK (Homo sapiens, UniProt Q06187)
T4 construct: purchased Invitrogen (Life Technologies) SelectScreen Z'-LYTE
Method: as §1

CDK9/cyclin T1 = molecular target: T5, CDK9/cyclin T1 (Homo sapiens, UniProt P50750)
T5 construct: purchased Invitrogen (Life Technologies) SelectScreen Z'-LYTE
Method: as §1

FLT1 (VEGFR1) = molecular target: T6, FLT1 (VEGFR1) (Homo sapiens, UniProt P17948)
T6 construct: purchased Invitrogen (Life Technologies) SelectScreen Z'-LYTE
Method: as §1

ITK = molecular target: T7, ITK (Homo sapiens, UniProt Q08881)
T7 construct: purchased Invitrogen (Life Technologies) SelectScreen Z'-LYTE
T7 sequence (Q08881 1-620): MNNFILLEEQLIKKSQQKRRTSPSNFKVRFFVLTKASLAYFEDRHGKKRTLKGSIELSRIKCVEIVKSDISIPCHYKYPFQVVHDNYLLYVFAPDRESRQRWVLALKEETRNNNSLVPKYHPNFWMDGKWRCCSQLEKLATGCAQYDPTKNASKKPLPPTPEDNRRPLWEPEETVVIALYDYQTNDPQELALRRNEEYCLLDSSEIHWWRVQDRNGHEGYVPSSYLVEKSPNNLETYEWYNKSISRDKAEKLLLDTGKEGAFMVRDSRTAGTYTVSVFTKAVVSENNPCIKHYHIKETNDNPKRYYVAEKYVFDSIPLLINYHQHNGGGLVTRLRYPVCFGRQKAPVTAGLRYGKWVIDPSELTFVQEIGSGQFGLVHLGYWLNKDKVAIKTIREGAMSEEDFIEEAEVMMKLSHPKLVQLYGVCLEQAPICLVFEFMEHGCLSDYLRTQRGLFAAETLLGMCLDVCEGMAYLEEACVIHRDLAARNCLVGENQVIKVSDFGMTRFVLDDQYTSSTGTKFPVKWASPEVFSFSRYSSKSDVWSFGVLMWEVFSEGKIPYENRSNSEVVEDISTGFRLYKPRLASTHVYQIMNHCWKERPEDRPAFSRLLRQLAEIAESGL
Method: as §1

MAPK11 (p38 beta) = molecular target: T8, MAPK11 (p38 beta) (Homo sapiens, UniProt Q15759)
T8 construct: purchased Invitrogen (Life Technologies) SelectScreen Z'-LYTE
Method: as §1

PIM1 = molecular target: T9, PIM1 (Homo sapiens, UniProt P11309)
T9 construct: purchased Invitrogen (Life Technologies) SelectScreen Z'-LYTE
Method: as §1

PIM2 = molecular target: T10, PIM2 (Homo sapiens, UniProt Q9P1W9)
T10 construct: purchased Invitrogen (Life Technologies) SelectScreen Z'-LYTE
Method: as §1

ROCK1 = molecular target: T11, ROCK1 (Homo sapiens, UniProt Q13464)
T11 construct: purchased Invitrogen (Life Technologies) SelectScreen Z'-LYTE
Method: as §1

TEK (Tie2) = molecular target: T12, TEK (Tie2) (Homo sapiens, UniProt Q02763)
T12 construct: purchased Invitrogen (Life Technologies) SelectScreen Z'-LYTE
Method: as §1

T11 sequence (Q13464 whole entry): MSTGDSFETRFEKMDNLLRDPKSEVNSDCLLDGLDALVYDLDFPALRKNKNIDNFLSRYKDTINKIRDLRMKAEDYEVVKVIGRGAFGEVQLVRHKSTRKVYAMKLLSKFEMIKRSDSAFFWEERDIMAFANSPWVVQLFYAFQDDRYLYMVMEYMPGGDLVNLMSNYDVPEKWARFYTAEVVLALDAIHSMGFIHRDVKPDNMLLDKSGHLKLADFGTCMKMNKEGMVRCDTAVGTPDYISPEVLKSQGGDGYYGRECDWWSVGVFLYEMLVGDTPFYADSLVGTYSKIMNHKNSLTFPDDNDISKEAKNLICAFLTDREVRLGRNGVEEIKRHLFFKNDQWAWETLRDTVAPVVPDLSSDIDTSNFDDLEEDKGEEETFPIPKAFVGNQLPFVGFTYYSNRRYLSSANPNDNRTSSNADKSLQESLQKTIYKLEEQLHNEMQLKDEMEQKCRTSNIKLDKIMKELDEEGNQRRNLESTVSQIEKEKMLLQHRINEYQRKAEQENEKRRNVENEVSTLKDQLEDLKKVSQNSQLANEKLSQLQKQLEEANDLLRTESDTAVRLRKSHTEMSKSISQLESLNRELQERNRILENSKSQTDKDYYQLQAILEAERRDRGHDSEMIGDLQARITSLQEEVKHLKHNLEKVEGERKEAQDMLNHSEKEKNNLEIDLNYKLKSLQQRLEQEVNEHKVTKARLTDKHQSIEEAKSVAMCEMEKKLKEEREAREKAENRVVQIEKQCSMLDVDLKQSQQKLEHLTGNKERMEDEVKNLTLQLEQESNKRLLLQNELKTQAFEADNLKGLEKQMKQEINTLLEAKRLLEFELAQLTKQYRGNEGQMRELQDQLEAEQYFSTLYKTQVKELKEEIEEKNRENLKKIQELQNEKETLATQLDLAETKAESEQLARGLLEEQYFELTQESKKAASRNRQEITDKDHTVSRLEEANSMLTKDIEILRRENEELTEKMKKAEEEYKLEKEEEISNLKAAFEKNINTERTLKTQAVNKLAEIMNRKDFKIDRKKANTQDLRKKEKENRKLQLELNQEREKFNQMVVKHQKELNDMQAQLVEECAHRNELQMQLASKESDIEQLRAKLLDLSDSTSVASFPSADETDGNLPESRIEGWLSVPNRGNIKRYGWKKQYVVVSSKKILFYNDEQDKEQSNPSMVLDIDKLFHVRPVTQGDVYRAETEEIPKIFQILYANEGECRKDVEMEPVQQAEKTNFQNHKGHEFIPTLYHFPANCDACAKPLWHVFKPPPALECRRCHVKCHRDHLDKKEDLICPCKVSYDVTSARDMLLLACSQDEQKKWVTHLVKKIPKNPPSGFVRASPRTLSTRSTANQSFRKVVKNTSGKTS
T6 sequence (P17948 27-1338): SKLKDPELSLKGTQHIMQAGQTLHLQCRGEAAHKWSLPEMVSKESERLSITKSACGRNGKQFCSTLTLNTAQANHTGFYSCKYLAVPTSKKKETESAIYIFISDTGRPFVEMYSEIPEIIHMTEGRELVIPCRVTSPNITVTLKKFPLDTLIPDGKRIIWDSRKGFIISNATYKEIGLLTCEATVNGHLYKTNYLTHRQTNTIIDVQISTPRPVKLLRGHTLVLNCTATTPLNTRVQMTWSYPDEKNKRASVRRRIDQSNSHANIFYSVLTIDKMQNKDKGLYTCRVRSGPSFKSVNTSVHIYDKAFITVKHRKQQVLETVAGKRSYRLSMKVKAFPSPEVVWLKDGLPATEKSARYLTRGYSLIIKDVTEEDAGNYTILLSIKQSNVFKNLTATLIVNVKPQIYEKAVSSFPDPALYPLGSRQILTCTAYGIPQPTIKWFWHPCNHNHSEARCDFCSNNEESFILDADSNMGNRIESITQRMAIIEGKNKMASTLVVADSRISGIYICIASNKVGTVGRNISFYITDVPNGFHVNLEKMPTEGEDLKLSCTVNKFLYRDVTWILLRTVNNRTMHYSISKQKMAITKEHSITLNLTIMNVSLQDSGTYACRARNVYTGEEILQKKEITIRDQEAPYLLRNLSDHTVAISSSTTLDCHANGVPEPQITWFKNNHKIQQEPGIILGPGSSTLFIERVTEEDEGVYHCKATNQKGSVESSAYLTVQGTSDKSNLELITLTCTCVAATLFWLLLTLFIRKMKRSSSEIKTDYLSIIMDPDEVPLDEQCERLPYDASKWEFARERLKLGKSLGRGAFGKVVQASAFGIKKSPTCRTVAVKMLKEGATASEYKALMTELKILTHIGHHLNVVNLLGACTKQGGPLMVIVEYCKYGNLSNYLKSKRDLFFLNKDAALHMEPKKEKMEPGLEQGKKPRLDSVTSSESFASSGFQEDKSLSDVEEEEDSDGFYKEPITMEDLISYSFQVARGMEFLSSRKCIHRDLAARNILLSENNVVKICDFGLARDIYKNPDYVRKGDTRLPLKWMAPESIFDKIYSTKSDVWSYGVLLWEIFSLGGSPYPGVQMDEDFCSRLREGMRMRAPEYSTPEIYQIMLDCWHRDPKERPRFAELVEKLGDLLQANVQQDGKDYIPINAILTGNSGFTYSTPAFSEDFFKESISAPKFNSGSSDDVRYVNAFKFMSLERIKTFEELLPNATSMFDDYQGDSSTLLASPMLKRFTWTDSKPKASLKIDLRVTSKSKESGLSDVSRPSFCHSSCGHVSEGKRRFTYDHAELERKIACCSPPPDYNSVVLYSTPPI
T10 sequence (Q9P1W9 whole entry): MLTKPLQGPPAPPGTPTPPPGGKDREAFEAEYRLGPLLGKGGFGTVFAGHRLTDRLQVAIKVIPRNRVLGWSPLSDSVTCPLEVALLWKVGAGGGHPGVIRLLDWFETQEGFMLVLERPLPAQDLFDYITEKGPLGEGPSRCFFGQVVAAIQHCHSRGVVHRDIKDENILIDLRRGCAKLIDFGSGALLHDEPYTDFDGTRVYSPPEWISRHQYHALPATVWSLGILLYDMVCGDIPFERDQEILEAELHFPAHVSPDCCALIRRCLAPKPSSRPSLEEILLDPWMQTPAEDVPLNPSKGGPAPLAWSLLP
T4 sequence (Q06187 whole entry): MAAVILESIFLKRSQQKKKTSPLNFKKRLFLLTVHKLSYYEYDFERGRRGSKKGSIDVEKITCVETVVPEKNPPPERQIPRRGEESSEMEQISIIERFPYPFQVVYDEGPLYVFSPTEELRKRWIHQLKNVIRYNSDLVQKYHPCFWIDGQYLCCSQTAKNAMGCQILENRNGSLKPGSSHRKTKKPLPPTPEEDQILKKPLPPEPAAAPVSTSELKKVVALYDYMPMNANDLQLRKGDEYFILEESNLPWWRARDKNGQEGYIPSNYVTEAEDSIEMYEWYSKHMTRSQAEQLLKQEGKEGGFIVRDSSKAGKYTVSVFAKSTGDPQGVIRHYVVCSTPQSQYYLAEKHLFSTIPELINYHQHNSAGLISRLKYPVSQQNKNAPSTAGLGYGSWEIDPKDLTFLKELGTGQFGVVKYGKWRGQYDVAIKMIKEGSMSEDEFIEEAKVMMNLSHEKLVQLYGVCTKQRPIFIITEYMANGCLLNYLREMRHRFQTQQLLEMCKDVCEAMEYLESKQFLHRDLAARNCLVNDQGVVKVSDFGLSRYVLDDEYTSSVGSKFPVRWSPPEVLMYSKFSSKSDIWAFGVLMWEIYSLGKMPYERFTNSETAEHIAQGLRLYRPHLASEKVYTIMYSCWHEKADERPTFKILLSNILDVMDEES
T9 sequence (P11309 whole entry): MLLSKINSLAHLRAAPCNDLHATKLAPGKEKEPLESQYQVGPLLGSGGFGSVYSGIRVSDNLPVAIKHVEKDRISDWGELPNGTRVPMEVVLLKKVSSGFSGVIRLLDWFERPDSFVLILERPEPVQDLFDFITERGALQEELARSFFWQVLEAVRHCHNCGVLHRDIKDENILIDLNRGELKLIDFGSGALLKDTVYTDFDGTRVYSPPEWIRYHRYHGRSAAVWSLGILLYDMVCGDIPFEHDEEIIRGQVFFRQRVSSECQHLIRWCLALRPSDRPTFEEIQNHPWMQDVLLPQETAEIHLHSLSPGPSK
T12 sequence (Q02763 23-1124): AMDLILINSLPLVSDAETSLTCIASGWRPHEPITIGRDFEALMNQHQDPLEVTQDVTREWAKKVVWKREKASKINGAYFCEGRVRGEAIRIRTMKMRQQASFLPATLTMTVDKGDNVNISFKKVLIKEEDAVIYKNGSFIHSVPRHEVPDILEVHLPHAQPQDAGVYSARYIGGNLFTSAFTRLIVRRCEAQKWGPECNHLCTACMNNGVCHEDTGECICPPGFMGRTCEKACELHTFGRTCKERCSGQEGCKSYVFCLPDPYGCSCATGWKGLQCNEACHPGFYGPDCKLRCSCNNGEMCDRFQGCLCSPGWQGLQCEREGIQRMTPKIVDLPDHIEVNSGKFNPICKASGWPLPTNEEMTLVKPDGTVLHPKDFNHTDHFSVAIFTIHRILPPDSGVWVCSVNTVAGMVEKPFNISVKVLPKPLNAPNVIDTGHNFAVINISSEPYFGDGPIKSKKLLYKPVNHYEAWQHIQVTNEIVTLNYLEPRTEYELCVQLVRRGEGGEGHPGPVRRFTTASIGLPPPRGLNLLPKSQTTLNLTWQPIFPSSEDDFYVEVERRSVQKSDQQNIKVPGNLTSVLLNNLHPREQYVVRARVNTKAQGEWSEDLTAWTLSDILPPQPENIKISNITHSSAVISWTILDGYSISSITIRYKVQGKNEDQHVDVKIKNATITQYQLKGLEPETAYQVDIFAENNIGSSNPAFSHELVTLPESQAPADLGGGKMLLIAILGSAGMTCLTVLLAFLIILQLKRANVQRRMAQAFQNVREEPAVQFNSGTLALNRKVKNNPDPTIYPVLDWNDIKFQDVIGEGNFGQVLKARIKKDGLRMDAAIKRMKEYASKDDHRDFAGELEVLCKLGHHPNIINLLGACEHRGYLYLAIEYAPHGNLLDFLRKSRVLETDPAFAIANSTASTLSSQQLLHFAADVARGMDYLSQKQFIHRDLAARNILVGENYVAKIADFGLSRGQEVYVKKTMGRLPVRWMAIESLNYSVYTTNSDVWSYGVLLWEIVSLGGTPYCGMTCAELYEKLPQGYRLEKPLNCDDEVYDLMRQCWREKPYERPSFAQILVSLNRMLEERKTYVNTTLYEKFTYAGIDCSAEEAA

Row | % inhibition of activity (ADRBK1 (GRK2)) | % inhibition of activity (AXL) | % inhibition of activity (BRAF) | % inhibition of activity (BTK) | % inhibition of activity (CDK9/cyclin T1) | % inhibition of activity (FLT1 (VEGFR1)) | % inhibition of activity (ITK) | % inhibition of activity (MAPK11 (p38 beta)) | % inhibition of activity (PIM1) | % inhibition of activity (PIM2) | % inhibition of activity (ROCK1) | % inhibition of activity (TEK (Tie2)) | SMILES
1 | 0% | 21% | 7% | 5% | −8% | 14% | 0% | 6% | 0% | 3% | −2% | 2% | CCn1c(=O)c(-c2ccc(-c3cncc(C)n3)cc2Cl)cc2cnc(NCCC3CCN(C)CC3)nc21 [Frax1036]
2 | 10% | 67% | 52% | 74% | 13% | 5% | 23% | 8% | 6% | 4% | 5% | 0% | Cc1nc(Nc2[nH]nc3c2CN(C(=O)N[C@H](CN(C)C)c2ccccc2)C3(C)C)c2sccc2n1 [PF3758309, reference compound]

Row | SMILES | % inhibition of activity (ADRBK1 (GRK2)) | % inhibition of activity (AXL) | % inhibition of activity (BRAF) | % inhibition of activity (BTK) | % inhibition of activity (CDK9/cyclin T1) | % inhibition of activity (FLT1 (VEGFR1)) | % inhibition of activity (ITK) | % inhibition of activity (MAPK11 (p38 beta)) | % inhibition of activity (PIM1) | % inhibition of activity (PIM2) | % inhibition of activity (ROCK1) | % inhibition of activity (TEK (Tie2))
3 | CCn1c(=O)c(-c2ccc(-c3noc(C)n3)cc2Cl)cc2cnc(Nc3ccc(C4CCN(C)CC4)cc3)nc21 [Frax716] | 10% | 45% | 72% | 87% | 3% | 37% | 84% | 2% | −4% | 1% | 2% | 98%
